According to US10947188B2, “Small molecule ferroptosis inducers” (THE TRUSTEES OF COLUMBIA UNIVERSITY IN THE CITY OF NEW YORK, priority 2016, dated 2021):

Tested on: HT-1080
Assay: Modulatory profiling: Alamar Blue viability, lethal compound cotreated with death modulator (EC50, AUC); on AUC HT.BHA: reference of the scale not given here; on AUC HT.EGTA: reference of the scale not given here
Format: cell-based
Set-up: AUC, modulator HT.3MA / AUC, modulator HT.ALLN / AUC HT.ATA / AUC HT.ActD / AUC HT.BHA / AUC HT.BHT / AUC HT.BocD / AUC HT.CHX / AUC HT.Co2+ / AUC HT.DPQ / AUC HT.EGTA / AUC HT.Lmim / AUC HT.NAD+ / AUC HT.Nec-1 / AUC HT.SP600125 / AUC HT.TLCK / AUC HT.U0126: unit not given beside the values
Settings: for AUC HT.ATA: HT-1080, modulator ATA; for AUC HT.ActD: HT-1080, modulator ActD; for AUC HT.BHA: HT-1080, modulator BHA; for AUC HT.BHT: HT-1080, modulator BHT; for AUC HT.BocD: HT-1080, modulator BocD; for AUC HT.CHX: HT-1080, modulator CHX; for AUC HT.Co2+: HT-1080, modulator Co2+; for AUC HT.CspA: HT-1080, modulator CspA; for AUC HT.DPQ: HT-1080, modulator DPQ; for AUC HT.EGTA: HT-1080, modulator EGTA; for AUC HT.Gd3+: HT-1080, modulator Gd3+; for AUC HT.LNAME: HT-1080, modulator LNAME; for AUC HT.Lmim: HT-1080, modulator Lmim; for AUC HT.NAD+: HT-1080, modulator NAD+; for AUC HT.NMMA: HT-1080, modulator NMMA; for HT.atoc (AUC) / HT.bCarotene (AUC) / HT.deferox (AUC) / HT.digoxin (AUC) / HT.trolox (AUC) / HT.zVAD (AUC): HT-1080; for HT.atoc (AUC): modulator atoc; for HT.bCarotene (AUC): modulator bCarotene; for HT.deferox (AUC): modulator deferox; for HT.digoxin (AUC): modulator digoxin; for HT.trolox (AUC): modulator trolox; for HT.zVAD (AUC): modulator zVAD; for AUC, modulator HT.3MA / AUC, modulator HT.ALLN: HT-1080 cells, modulatory profile value (AUC); for AUC, modulator HT.3MA: lethal compound cotreated with modulator 3MA; for AUC, modulator HT.ALLN: lethal compound cotreated with modulator ALLN

| Compound | AUC HT.ATA | AUC HT.ActD | AUC HT.BHA | AUC HT.BHT | AUC HT.BocD | AUC HT.CHX | AUC HT.Co2+ | AUC HT.CspA | AUC HT.DPQ | AUC HT.EGTA | AUC HT.Gd3+ | AUC HT.LNAME | AUC HT.Lmim | AUC HT.NAD+ | AUC HT.NMMA | HT.atoc (AUC) | HT.bCarotene (AUC) | HT.deferox (AUC) | HT.digoxin (AUC) | HT.trolox (AUC) | also measured |
| --- | --- | --- | --- | --- | --- | --- | --- | --- | --- | --- | --- | --- | --- | --- | --- | --- | --- | --- | --- | --- | --- |
| CC(C)[C@@H]1NC(=O)[C@H](C)OC(=O)[C@@H](C(C)C)NC(=O)[C@@H](C(C)C)OC(=O)[C@H](C(C)C)NC(=O)[C@H](C)OC(=O)[C@@H](C(C)C)NC(=O)[C@@H](C(C)C)OC(=O)[C@H](C(C)C)NC(=O)[C@H](C)OC(=O)[C@@H](C(C)C)NC(=O)[C@@H](C(C)C)OC1=O [Vatinomycin] | 0.04039 | 0.0779 | −0.01263 | −0.05233 | 0.01496 | 0.1024 | −0.06183 | −0.03789 | 0.1702 | −0.04483 | −0.004524 | −0.03843 | 0.1163 | 0.07833 | −0.002681 | 0.2292 | −0.01526 | 0.004145 | −0.1615 | 0.04463 | AUC HT.Nec-1 (HT-1080, modulator Nec-1): 0.08394; AUC HT.Pepstatin (HT-1080, modulator Pepstatin): 0.0197; AUC HT.SP600125 (HT-1080, modulator SP600125): −0.161; AUC HT.TLCK (HT-1080, modulator TLCK): 0.02961; AUC HT.U0126 (HT-1080, modulator U0126): 0.005482; HT.zVAD (AUC): −0.05753; AUC, modulator HT.3MA: −0.1653; AUC, modulator HT.ALLN: 0.04228 |
| O=C(/C=C/c1cccc(NC(=O)c2cccs2)c1)c1ccccc1 [CIL33] | 0.04655 | −0.03269 | −0.02938 | −0.1089 | 0.006307 | 0.06763 | 0.1418 | −0.03213 | 0.02728 | −0.007461 | −0.02182 | 0.003047 | −0.007068 | −0.0189 | −0.002248 | 0.04094 | −0.01651 | 0.1056 | −0.03413 | −0.05079 | HT.zVAD (AUC): 0.03457; AUC, modulator HT.3MA: 0.08789; AUC, modulator HT.ALLN: 0.04123 |
| CC1CC2=C(CC1CNCCCN(C)C)C(C)(C)CCC2 (centres unmarked) [CIL26] | 0.04192 | −0.002488 | −0.1441 | −0.1215 | 0.008992 | −0.02052 | −0.02744 | −0.04225 | 0.02987 | 0.009998 | −0.005334 | 0.001215 | −0.004 | −0.01406 | −0.009692 | 0.04649 | −0.03349 | −0.1033 | −0.03641 | −0.0327 | HT.zVAD (AUC): −0.01226; AUC, modulator HT.3MA: 0.0321; AUC, modulator HT.ALLN: 0.001592 |
